Laboratory results published in BindingDB's records for patent US9284322 (Research Triangle Institute, 2016).

target: Isoform Alpha-4-2 of Neuronal acetylcholine receptor subunit alpha-4 (Alpha-4-2)/Neuronal acetylcholine receptor subunit beta-2 (Rat, UniProt P09483+P12390); assay: Adult male rat cerebral cortices (Pelfreeze Biological, Rogers, Ark.) were homogenized in 39 volumes of ice-cold 50 mM Tris buffer (pH 7.4 at 4° C.) containing 120 mM NaCl, 5 mM KCl, 2 mM CaCl2, and 1 mM MgCl2 and sedimented at 37,000 g for 10 min at 4° C. The supernatant was discarded, the pellet resuspended in the original volume of buffer, and the wash procedure repeated twice more. After the last centrifugation, the pellet was resuspended in 1/10 its original homogenization volume and stored at −80° C. until needed. […] Total and nonspecific bindings were determined in the presence of vehicle and 300 μM (−)-ni; details: 25 °C
Sequence (P09483 as listed by the source): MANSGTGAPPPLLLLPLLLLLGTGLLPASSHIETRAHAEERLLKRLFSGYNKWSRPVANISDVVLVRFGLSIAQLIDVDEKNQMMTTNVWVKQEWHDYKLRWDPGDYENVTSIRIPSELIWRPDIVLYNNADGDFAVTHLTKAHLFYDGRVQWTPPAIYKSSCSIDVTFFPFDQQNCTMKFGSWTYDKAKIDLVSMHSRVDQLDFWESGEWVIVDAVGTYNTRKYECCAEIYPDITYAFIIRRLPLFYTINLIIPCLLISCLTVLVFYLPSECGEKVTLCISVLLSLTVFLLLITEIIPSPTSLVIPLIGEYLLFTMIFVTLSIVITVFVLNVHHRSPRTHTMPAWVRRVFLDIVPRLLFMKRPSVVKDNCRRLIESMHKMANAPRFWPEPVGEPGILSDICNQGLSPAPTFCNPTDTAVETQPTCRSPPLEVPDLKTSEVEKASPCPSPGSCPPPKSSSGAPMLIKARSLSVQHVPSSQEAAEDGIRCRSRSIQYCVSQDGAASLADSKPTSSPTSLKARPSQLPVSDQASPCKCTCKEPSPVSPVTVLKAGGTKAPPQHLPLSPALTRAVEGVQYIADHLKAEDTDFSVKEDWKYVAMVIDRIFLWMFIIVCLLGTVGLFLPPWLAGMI
Sequence (P12390 whole entry, canonical isoform): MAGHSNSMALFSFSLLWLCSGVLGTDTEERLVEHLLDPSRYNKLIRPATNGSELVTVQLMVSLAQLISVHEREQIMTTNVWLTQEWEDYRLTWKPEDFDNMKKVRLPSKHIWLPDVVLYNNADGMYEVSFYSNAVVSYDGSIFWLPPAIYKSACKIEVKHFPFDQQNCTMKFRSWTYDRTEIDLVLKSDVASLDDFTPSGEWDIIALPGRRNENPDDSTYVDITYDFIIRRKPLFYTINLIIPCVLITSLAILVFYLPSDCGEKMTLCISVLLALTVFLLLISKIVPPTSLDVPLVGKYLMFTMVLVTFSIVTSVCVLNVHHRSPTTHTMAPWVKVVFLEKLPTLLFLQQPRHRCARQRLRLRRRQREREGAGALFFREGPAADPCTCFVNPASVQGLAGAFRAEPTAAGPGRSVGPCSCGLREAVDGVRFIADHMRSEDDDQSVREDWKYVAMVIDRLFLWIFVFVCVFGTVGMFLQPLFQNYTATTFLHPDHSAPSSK

Structure (SMILES) | Ki [pM]
c1ncc(-c2cncc(C3CC4CCC3N4)c2)cn1 (stereo not drawn) [US9284322, Table 7, Compound 1] | 120
Clc1ncc(C2CC3CCC2N3)cc1-c1cncnc1 (stereo not drawn) [US9284322, Table 7, Compound 3] | 320
Fc1ncc(C2CC3CCC2N3)cc1-c1cncnc1 (stereo not drawn) [US9284322, Table 7, Compound 2] | 840
